Laboratory results reported in patent US20240252488A1 (KOREA RESEARCH INSTITUTE OF CHEMICAL TECHNOLOGY, priority 2020, published 2024).

Experiments:
MLKL [1] = target: T1, MLKL (Homo sapiens, UniProt Q8NB16); assay: Measurement of binding affinity with MLKL receptor (competitive binding assay, Kd); design: made in house; host or cells: HEK 293 cell line (T7 phage in E. coli BL21-derived host is also described)
T1 sequence (Q8NB16 1-471): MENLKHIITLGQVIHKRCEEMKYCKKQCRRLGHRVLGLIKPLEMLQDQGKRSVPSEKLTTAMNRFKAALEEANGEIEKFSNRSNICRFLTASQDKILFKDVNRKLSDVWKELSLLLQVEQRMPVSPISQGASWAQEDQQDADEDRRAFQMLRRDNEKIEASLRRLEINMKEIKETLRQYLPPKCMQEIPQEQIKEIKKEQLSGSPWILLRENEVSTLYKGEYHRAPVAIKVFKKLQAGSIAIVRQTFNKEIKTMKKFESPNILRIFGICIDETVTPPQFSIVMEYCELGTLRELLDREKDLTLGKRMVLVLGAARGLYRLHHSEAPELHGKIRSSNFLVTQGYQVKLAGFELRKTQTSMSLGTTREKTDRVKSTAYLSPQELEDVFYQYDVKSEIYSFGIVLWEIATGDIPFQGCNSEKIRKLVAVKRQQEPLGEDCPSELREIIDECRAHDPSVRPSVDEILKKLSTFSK
Method in brief: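 Competition binding of kinase tagged with DNA for qPCR detection, expressed in HEK 293 cells, against immobilized ligand on beads. Final DMSO 0.9%. Kd derived from kinase amount in eluates measured by qPCR.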

MLKL [2] = target: T1, MLKL; assay: MLKL degradation assay in HepG2 cell line (western blot); assay type: cell-based; design: endogenous in cells; host or cells: HepG2 or HaCaT; settings: cell line not given; for Degradation assay (Degradation %) 1 μM: compound 1 μM; for Degradation assay (Degradation %) 10 μM: compound 10 μM
Method in brief: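 HepG2 cells were exposed to compound at a final 1 or 10 μM for 20-24 hours at 37 °C, 5% CO2. RIPA lysates were normalized by BCA assay, 10-15 μg protein resolved by SDS-PAGE, and MLKL levels detected by western blot with chemiluminescence.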

FADD−/− Jurkat cells = assay: Necroptosis inhibition assay, TNF-α-induced necroptosis (CellTiter-Glo 2.0); assay type: cell-based, human; settings: TNF-α 15 ng/mL; for Necroptosis inhibition assay (Rescue %) 10 μM: compound 10 μM; for Necroptosis inhibition assay (Rescue %) 1 μM: compound 1 μM
Method in brief: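 Cells at 5.0×10^5 cells/mL were pretreated with compound (final 0.1, 1 and 10 μM) for 30 minutes at room temperature, then given TNF-α at 15 ng/mL final. After 20 to 24 hours at 37° C, 5% CO2, viability was read as ATP luminescence to calculate cytotoxicity and necroptosis inhibition rate.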

For `Nc1ncc(-c2cnn(C3CCN(C(=O)C4CCN(C(=O)CNc5ccc6c(c5)C(=O)N(C5CCC(=O)NC5=O)C6=O)CC4)CC3)c2)nc1C(=O)O[C@@H](C(=O)Nc1ccc(F)cc1)c1ccccc1` (stereo partly drawn) [TDH-353, (R)-2-((4-fluorophenyl)amino)-2-oxo-1-phenylethyl 3-amino-6-(1-(1-(1-((2-(2,6-dioxopiperidin-3-yl)-1,3-dioxoisoindolin-5-yl)glycyl)piperidine-4-carbonyl)piperidin-4-yl)-1H-pyrazol-4-yl)pyrazine-2-carboxylate], the Kd (MLKL [1]) was 26 nM, the “Degradation assay (Degradation %) 1 μM” value (MLKL [2]) was 75.35% and the “Degradation assay (Degradation %) 10 μM” value (MLKL [2]) was 86.12%. For the same compound, the “Necroptosis inhibition assay (Rescue %) 1.1 μM” value (FADD−/− Jurkat cells; compound 1.1 µM) was 55.34 (1.1µM) % and the “Necroptosis inhibition assay (Rescue %) 10 μM” value (FADD−/− Jurkat cells) was 49.23%.
With `Nc1ncc(-c2cnn(C3CCN(C(=O)COC4CCN(C(=O)CNc5cccc6c5C(=O)N(C5CCC(=O)NC5=O)C6=O)CC4)CC3)c2)nc1C(=O)O[C@@H](C(=O)Nc1ccc(F)cc1)c1ccccc1` (stereo partly drawn) [TDH-395, (R)-2-((4-fluorophenyl)amino)-2-oxo-1-phenylethyl 3-amino-6-(1-(1-(2-((1-((2-(2,6-dioxopiperidin-3-yl)-1,3-dioxoisoindolin-4-yl)glycyl)piperidin-4-yl)oxy)acetyl)piperidin-4-yl)-1H-pyrazol-4-yl)pyrazine-2-carboxylate] the Kd (MLKL [1]) was 6.1 nM, the “Degradation assay (Degradation %) 1 μM” value (MLKL [2]) was 88.76% and the “Degradation assay (Degradation %) 10 μM” value (MLKL [2]) was 89.67%. For the same compound, the “Necroptosis inhibition assay (Rescue %) 1 μM” value (FADD−/− Jurkat cells) was 34.73% and the “Necroptosis inhibition assay (Rescue %) 10 μM” value (FADD−/− Jurkat cells) was 37.15%.
`Nc1ncc(-c2cnn(C3CCN(CCOCCNC(=O)COc4ccc5c(c4)C(=O)N(C4CCC(=O)NC4=O)C5=O)CC3)c2)nc1C(=O)O[C@@H](C(=O)Nc1ccc(F)cc1)c1ccccc1` (stereo partly drawn) [TDH-168, (R)-2-((4-fluorophenyl)amino)-2-oxo-1-phenylethyl 3-amino-6-(1-(1-(2-(2-(2-((2-(2,6-dioxopiperidin-3-yl)-1,3-dioxoisoindolin-5-yl)oxy)acetamido)ethoxy)ethyl)piperidin-4-yl)-1H-pyrazol-4-yl)pyrazine-2-carboxylate] was tested, and the Kd (MLKL [1]) was 7.1 nM, the “Degradation assay (Degradation %) 10 μM” value (MLKL [2]) was 24.52% and the “Necroptosis inhibition assay (Rescue %) 1 μM” value (FADD−/− Jurkat cells) was 31.24%. For the same compound, the “Necroptosis inhibition assay (Rescue %) 10 μM” value (FADD−/− Jurkat cells) was 40.55%.
`Nc1ncc(-c2cnn(C3CCN(C(=O)CC4CCN(C(=O)CC5CCN(c6ccc7c(c6)C(=O)N(C6CCC(=O)NC6=O)C7=O)CC5)CC4)CC3)c2)nc1C(=O)O[C@@H](C(=O)Nc1ccc(F)cc1)c1ccccc1` (stereo partly drawn) [TDH-402, (R)-2-((4-fluorophenyl)amino)-2-oxo-1-phenylethyl 3-amino-6-(1-(1-(2-(1-(2-(1-(2-(2,6-dioxopiperidin-3-yl)-1,3-dioxoisoindolin-5-yl)piperidin-4-yl)acetyl)piperidin-4-yl)acetyl)piperidin-4-yl)-1H-pyrazol-4-yl)pyrazine-2-carboxylate] was tested, and the Kd (MLKL [1]) was 7.7 nM, the “Degradation assay (Degradation %) 1 μM” value (MLKL [2]) was 65.36% and the “Degradation assay (Degradation %) 10 μM” value (MLKL [2]) was 48.34%. The “Necroptosis inhibition assay (Rescue %) 1 μM” value (FADD−/− Jurkat cells; FADD−/− Jurkat cells) was 23.40% and the “Necroptosis inhibition assay (Rescue %) 10 μM” value (FADD−/− Jurkat cells; FADD−/− Jurkat cells) was 19.16%.
In the case of `Nc1ncc(-c2cnn(C3CCN(C(=O)CC4CCN(C(=O)CNc5cccc6c5C(=O)N(C5CCC(=O)NC5=O)C6=O)CC4)CC3)c2)nc1C(=O)O[C@@H](C(=O)Nc1ccc(F)cc1)c1ccccc1` (stereo partly drawn) [TDH-339, (R)-2-((4-fluorophenyl)amino)-2-oxo-1-phenylethyl 3-amino-6-(1-(1-(2-(1-((2-(2,6-dioxopiperidin-3-yl)-1,3-dioxoisoindolin-4-yl)glycyl)piperidin-4-yl)acetyl)piperidin-4-yl)-1H-pyrazol-4-yl)pyrazine-2-carboxylate], the Kd (MLKL [1]) is reported as 13 nM, the “Degradation assay (Degradation %) 1 μM” value (MLKL [2]) is reported as 71.36% and the “Degradation assay (Degradation %) 10 μM” value (MLKL [2]) is reported as 51.92%. The “Necroptosis inhibition assay (Rescue %) 1 μM” value (FADD−/− Jurkat cells) was 12.23% and the “Necroptosis inhibition assay (Rescue %) 10 μM” value (FADD−/− Jurkat cells) was 12.31%.
